Assay results: ChEMBL document CHEMBL5576043, “Synthesis, radiosynthesis and biochemical evaluation of fluorinated analogues of sphingosine-1-phosphate receptor 3 specific antagonists using PET” (Bioorg Med Chem, 2024); call rule not given here

What was measured:
[1] = 1-Octanol/PBS partition coefficient, logD of the compound at pH 7.4 incubated for 3 mins; assay type: physicochemical
[2] = Retention time of compound by radio-HPLC analysis; assay type: physicochemical
[3] = Drug metabolism in formulated solution assessed as 4-[18F]fluoroaniline metabolite formation by measuring retention time after 180 mins by radio-HPLC analysis; assay type: ADME; details: 3 h
[4] = Drug metabolism in formulated solution assessed as decomposition mediated metabolite formation by measuring retention time after 180 mins by radio-HPLC analysis; assay type: ADME; details: 3 h
[5] = Drug metabolism in mouse serum assessed as decomposition mediated metabolite formation at 37 degreeC measured after 10 to 90 mins by radio-HPLC analysis; assay type: ADME, cell-free; details: time 10-90 min
[6] = Stability in mouse serum measured after 90 mins by radio-HPLC analysis; assay type: ADME, cell-free; details: 1.5 h
[7] = Drug metabolism in human serum assessed as decomposition mediated metabolite formation measured after 90 mins by radio-HPLC analysis; assay type: ADME, cell-free; details: 1.5 h
[8] = Drug accumulation in C57/BL6 mouse liver at 5 MBq, iv administered as bolus injection and measured upto 15 mins by imaging analysis; assay type: ADME, organism-based; details: in vivo, 0.25 h
[9] = Drug uptake in C57/BL6 mouse intestine at 5 MBq, iv administered as bolus injection and measured at 15 to 90 mins by imaging analysis; assay type: ADME, organism-based; details: in vivo, time 15-90 min
[10] = Drug uptake in C57/BL6 mouse kidney at 5 MBq, iv administered as bolus injection and measured for 90 mins by imaging analysis; assay type: ADME, organism-based; details: in vivo, 1.5 h
[11] = Drug uptake in C57/BL6 mouse urinary bladder at 5 MBq, iv administered as bolus injection and measured for 90 mins by imaging analysis; assay type: ADME, organism-based; details: in vivo, 1.5 h
[12] = Drug accumulation in C57/BL6 mouse heart at 5 MBq, iv administered as bolus injection and measured at 6 to 15 mins by imaging analysis; assay type: ADME, organism-based; details: in vivo, time 6-15 min
[13] = Drug accumulation in C57/BL6 mouse spleen at 5 MBq, iv administered as bolus injection and measured at 6 to 15 mins by imaging analysis; assay type: ADME, organism-based; details: in vivo, time 6-15 min
[14] = Drug accumulation in C57/BL6 mouse heart at 5 MBq, iv administered as bolus injection and measured at 15 to 90 mins by imaging analysis; assay type: ADME, organism-based; details: in vivo, time 15-90 min
[15] = Drug accumulation in C57/BL6 mouse spleen at 5 MBq, iv administered as bolus injection and measured at 15 to 90 mins by imaging analysis; assay type: ADME, organism-based; details: in vivo, time 15-90 min
[16] = Drug accumulation in C57/BL6 mouse lungs at 5 MBq, iv administered as bolus injection and measured at 0 to 5 mins by imaging analysis; assay type: ADME, organism-based, Lung; details: in vivo, time 0-5 min
[17] = Drug uptake in C57/BL6 mouse blood at 5 MBq, iv administered as bolus injection and measured after 90 mins by PET imaging analysis; assay type: ADME, organism-based; details: in vivo, 1.5 h
[18] = Drug uptake in C57/BL6 mouse blood at 5 MBq, iv administered as bolus injection and measured at 12 sec by PET imaging analysis; assay type: ADME, organism-based; details: in vivo, 12 s
[19] = Drug uptake in C57/BL6 mouse liver at 5 MBq, iv administered as bolus injection and measured at ~5 min by PET imaging analysis; assay type: ADME, organism-based; details: in vivo
[20] = Drug uptake in C57/BL6 mouse liver at 5 MBq, iv administered as bolus injection and measured at 90 min by PET imaging analysis; assay type: ADME, organism-based; details: in vivo, 1.5 h
[21] = Drug uptake in C57/BL6 mouse kidney at 5 MBq, iv administered as bolus injection and measured at 1.2 min by PET imaging analysis; assay type: ADME, organism-based; details: in vivo, 0.02 h
[22] = Drug uptake in C57/BL6 mouse kidney at 5 MBq, iv administered as bolus injection and measured at 90 min by PET imaging analysis; assay type: ADME, organism-based; details: in vivo, 1.5 h
[23] = Drug uptake in C57/BL6 mouse blood at 5 MBq, iv administered as bolus injection and measured within 24 sec by PET imaging analysis; assay type: ADME, organism-based; details: in vivo, 24 s
[24] = Drug uptake in C57/BL6 mouse lung at 5 MBq, iv administered as bolus injection and measured at 12 sec by PET imaging analysis; assay type: ADME, organism-based; details: in vivo, 12 s
[25] = Drug uptake in C57/BL6 mouse lung at 5 MBq, iv administered as bolus injection and measured within 4.5 min by PET imaging analysis; assay type: ADME, organism-based; details: in vivo, 0.075 h
[26] = Drug uptake in C57/BL6 mouse spleen at 5 MBq, iv administered as bolus injection and measured within 4.5 min by PET imaging analysis; assay type: ADME, organism-based; details: in vivo, 0.075 h
[27] = Drug uptake in C57/BL6 mouse spleen at 5 MBq, iv administered as bolus injection and measured after 90 min by PET imaging analysis; assay type: ADME, organism-based; details: in vivo, 1.5 h
[28] = Drug uptake in C57/BL6 mouse heart at 5 MBq, iv administered as bolus injection and measured at 24 sec by PET imaging analysis; assay type: ADME, organism-based; details: in vivo, 24 s
[29] = Drug uptake in C57/BL6 mouse heart at 5 MBq, iv administered as bolus injection and measured at 4.2 min by PET imaging analysis; assay type: ADME, organism-based; details: in vivo, 0.07 h
[30] = Drug uptake in C57/BL6 mouse heart at 5 MBq, iv administered as bolus injection and measured at 14.2 min by PET imaging analysis; assay type: ADME, organism-based; details: in vivo, 0.2367 h
[31] = Drug uptake in C57/BL6 mouse heart at 5 MBq, iv administered as bolus injection and measured at 90 min by PET imaging analysis; assay type: ADME, organism-based; details: in vivo, 1.5 h
[32] = Drug uptake in C57/BL6 mouse lymph node at 5 MBq, iv administered as bolus injection and measured at 60 min by PET imaging analysis; assay type: ADME, organism-based; details: in vivo, 1 h
[33] = Drug uptake in C57/BL6 mouse muscle tissue at 5 MBq, iv administered as bolus injection and measured at 60 min by PET imaging analysis; assay type: ADME, organism-based; details: in vivo, 1 h
[34] = Drug uptake in C57/BL6 mouse brain at 5 MBq, iv administered as bolus injection and measured at 90 min by PET imaging analysis; assay type: ADME, organism-based; details: in vivo, 1.5 h

- logD at 0.05 h [1]: 1.55
- Retention_time [2]: 15.9 min
- Retention_time [3]: 4.5 min
- Retention_time [4]: 16.9 min
- Drug metabolism [5]: Metabolite_Detected
- Stability [6]: Stable
- Drug metabolism [7]: ~ 7%
- Drug uptake [8]: Active
- Drug uptake [9]: Active
- Drug uptake [10]: Not Active
- Drug uptake [11]: Not Active
- Drug uptake [12]: Active
- Drug uptake [13]: Active
- Drug uptake [14]: Not Active
- Drug uptake [15]: Not Active
- Drug uptake [16]: Active
- Drug uptake [17]: Not Active
- Drug uptake [18]: 37.5 %ID/cm3
- Drug uptake [19]: 41 %ID/cm3
- Drug uptake [20]: 10 %ID/cm3
- Drug uptake [21]: 8 %ID/cm3
- Drug uptake [22]: 4 %ID/cm3
- Drug uptake [23]: Not Active
- Drug uptake [24]: 13 %ID/cm3
- Drug uptake [25]: Not Active
- Drug uptake [26]: 11 %ID/cm3
- Drug uptake [27]: 3 %ID/cm3
- Drug uptake [28]: 7 %ID/cm3
- Drug uptake [29]: 5 %ID/cm3
- Drug uptake [30]: 6 %ID/cm3
- Drug uptake [31]: 3 %ID/cm3
- Drug uptake [32]: 2.1 %ID/cm3
- Drug uptake [33]: 1.9 %ID/cm3
- Drug uptake [34]: 3.9 %ID/cm3
Compound: CC(C)(C)C(=O)/C(=N\Nc1ccc(Cl)cc1)Nc1ccc([18F])cc1
